The values below come from patent US12642795B2, “MRGPRX2 antagonist for the treatment of pseudo allergic reactions” (The University of Hong Kong, priority 2021, dated 2026).

One assay has as its system Human LAD-2 mast cells. The assay can be described thus: β-Hexosaminidase MCs degranulation assay. The assay is classed as cell-based. The note with it: LAD2, LAD-2 MCs, followed by EC90 concentration (10 μM) of C48/80. The procedure:
Human LAD-2 mast cells were seeded at 2×10^4 cells/well/80 μL in a 96-well plate. A 10× stock of antagonist were prepared in HEPES buffer (HEPES (10 mM), NaCl (137 mM), KCl (2.7 mM), Na2HPO4·7H2O (0.4 mM), glucose (5.6 mM), CaCl2·2H2O (1.8 mM), MgSO4·7H2O (1.3 mM), bovine serum albumin (0.04%), pH 7.4). […] The plate was spun at 450×g for 5 minutes at room temperature, and 50 μL of supernatant was aliquoted to a new 96 well plate. The cells were lysed with 100 μL of 0.1% Triton X-100, and 50 μL of lysate was aliquoted to another 96 well plates. A 1.3 mg/ml solution of the substrate PNAG (4-Nitrophenyl N-acetyl-β-D-glucosaminide) was prepared in 0.1 M citric acid/sodium citrate buffer (pH 4.5, 24.087 g/L Sodium Citrate dihydrate, and 3.471 g/L Citric Acid). 50 μL of PNAG was added to each well of supernatant and lysate, and cells were incubated for 90 min at 37° C. (without CO2). The reaction was stopped by adding 50 μL of 0.4 M Glycine buffer. The extent of yellow color was measured at 405 nm using Victor 4× plate reader (PerkinElmer), and percentage MCs degranulation (β-hexosaminidase release) was calculated by using the formula; % MCs degranulation: […]

The subject of another assay is human LAD2 MCs. Description: Monocyte chemoattractant protein-1 (MCP-1) measurement by ELISA. It is filed as cell-based. As to conditions: 12.5 μM, 25 μM and 50 μM; compared to C48/80 control. As for the experimental part: MCP-1 and PGD2 were measured from human LAD2 MCs via individual ELISA kits. Briefly, MCs were seeded at a density of 1.5×10^5 cells/80 μL/well in a 96 well plate in complete Stem-Pro 34 media. […] The cells were centrifuged to collect the supernatant and stored at −80° C. until analyzed. […] After 24 hours, cells were centrifuged to discard the media and lysed with 0.1M potassium phosphate via sonication. The supernatant of cell lysate was collected and stored at −80° C. until analyzed. MCP-1 (Abcam, Cambridge, UK) and PGD2 (Cayman Chemicals, MI, USA) were quantified by ELISA according to manufacturer instruction.

`COC(=O)c1cc2cc(NC(N)=O)ccc2cc1-c1ccc2c3c(cccc13)C(=O)C=C2` [GE1109]: the IC50 with Human LAD-2 mast cells came to 9.87 µM. Further, in the assay with human LAD2 MCs, the “inhibition of C48/80 induced MCP-1 release” value is “significant activity only at 25 μM, and 50 μM”.
For the molecule `COC(=O)c1cc2cc(NC(N)=O)ccc2cc1-c1cc2c3c(c(O)ccc3c1)C(C)C(C=O)=C2` (stereo not shown) [GE1111], the midpoint of inhibition in the assay with Human LAD-2 mast cells, the IC50, lay at 4.7 µM. The “inhibition of C48/80 induced MCP-1 release” value in the assay with human LAD2 MCs was “significantly inhibits the release of MCP-1 at all the tested concentrations”.
